Experimental data taken from patent US20250340537A1, “PHARMACEUTICALLY ACTIVE COMPOUNDS, COMPOSITIONS, AND METHODS FOR MODULATING PENDRIN” (ARBORMED Co., Ltd., priority 2022, published 2025).

Legend:
[1] = molecular target: T1, H723R-pendrin (Homo sapiens, UniProt O43511, H723R); experiment: YFP fluorescence quenching assay (Cl−/I− exchange activity of pendrin); type: cell-based; conditions: PANC-1 cells stably expressing human H723R-pendrin and YFP-F46L/H148Q/I152L; compound incubation 20-24 hours; iodide influx
T1 construct: expressed in transfected cells; host or cells: PANC-1
T1 sequence (O43511 1-780 H723R): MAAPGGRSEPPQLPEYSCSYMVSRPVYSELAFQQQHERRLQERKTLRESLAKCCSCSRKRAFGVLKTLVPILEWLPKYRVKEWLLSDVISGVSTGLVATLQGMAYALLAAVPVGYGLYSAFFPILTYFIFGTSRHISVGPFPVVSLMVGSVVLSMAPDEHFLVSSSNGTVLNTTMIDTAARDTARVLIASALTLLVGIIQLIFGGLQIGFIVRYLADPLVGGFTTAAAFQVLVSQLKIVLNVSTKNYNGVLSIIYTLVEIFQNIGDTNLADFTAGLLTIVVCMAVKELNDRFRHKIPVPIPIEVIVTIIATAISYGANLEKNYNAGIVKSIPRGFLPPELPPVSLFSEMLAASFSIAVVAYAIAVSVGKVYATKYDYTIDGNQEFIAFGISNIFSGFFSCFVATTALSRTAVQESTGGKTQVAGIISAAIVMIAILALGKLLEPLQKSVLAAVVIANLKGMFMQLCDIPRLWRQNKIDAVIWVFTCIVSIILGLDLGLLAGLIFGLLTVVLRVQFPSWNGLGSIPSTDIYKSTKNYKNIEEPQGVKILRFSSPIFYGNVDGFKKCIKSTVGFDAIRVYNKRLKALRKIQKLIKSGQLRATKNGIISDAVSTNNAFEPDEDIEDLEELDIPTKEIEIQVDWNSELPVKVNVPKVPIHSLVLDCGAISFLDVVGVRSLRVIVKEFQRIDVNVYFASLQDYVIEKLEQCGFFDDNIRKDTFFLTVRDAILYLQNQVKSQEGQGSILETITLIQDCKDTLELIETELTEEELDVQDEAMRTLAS
In short: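 PANC-1 cells stably co-expressing human H723R-pendrin and YFP-F46L/H148Q/I152L, treated with compounds for 20-24 h at 37 °C. Initial iodide influx rate after NaI-substituted HEPES buffer (pH 7.4) addition, taken from the initial slope of YFP fluorescence quench by nonlinear regression. EC50 reported in bins.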

[2] = molecular target: T2, H723R-hPDS (Homo sapiens, UniProt O43511, H723R); experiment: Surface biotinylation assay; type: cell-based; conditions: Panc1 hPDS-H723R cells, 24 h treatment
T2 construct: expressed in transfected cells; host or cells: Panc1 (Panc1^hPDS-H723R)
T2 sequence (O43511 1-780 H723R): T1 sequence (O43511 1-780 H723R)
Source text: Surface biotinylation is a commonly used technique to specifically isolate plasma membrane proteins using a modified biotin in a form that is easy to bind with proteins. Sulfo-NHS-SS-biotin is a generally used reagent in surface biotinylation due to its impermeability and water solubility. In cool conditions, the extracellular domain of membrane proteins is covalently binding with the reactive biotin ester. These proteins are separated from the whole lysate via a biotin-streptavidin response. In this process, we can validate the increasing rate of the expression level of mutant pendrin in the plasma membrane.
Panc1^parental, Panc1^hPDS-WT and Panc1^hPDS-H723R cells were cultured in high glucose DMEM medium supplemented with 10% fetal bovine serum and 1% antibiotics. 24 hours after seeding in 6-well plates, cells were treated as indicated for 24 h. Cells were washed in PBS and incubated on ice with 0.3 mg/ml biotin in PBS. After 35 min, 1% BSA in PBS, D.W mixture (1:1) was added to cells, and cells were incubated for 10 min. Cells were washed and lysed in lysis buffer. The lysates were sonicated for 20 seconds, and not boiled. After centrifugated, the supernatants were collected and quantified via BCA analysis. The quantified supernatants were added to 10% avidin beads in PBS and incubated overnight at 4° C. After incubation, the below steps were repeated 4 times: i) centrifugation, ii) removing the supernatant, iii) washing with lysis buffer. After the last centrifugation and removing the supernatant, the sample buffer mixed with reducing buffer was added to biotin-avidin mixtures. The elution was accomplished in the 38° C. bioshaker for 40 min and the supernatant was collected. The supernatant was separated by SDS-PAGE and transferred to an Immobilon membrane. After incubation in 5% BSA solution to prevent nonspecific binding, the membrane was incubated with specific antibodies overnight. Then, the membrane was washed with TBST buffer and incubated with HRP-conjugated anti-rabbit or -mouse antibody for 1 hour. The ECL buffer and iBright were used for the visualization of protein bands. The respective protein band intensity was quantified by densitometric analysis using the NIH ImageJ program.
It is indicated as expression % with the following key: A=Expression % greater than 100%; B=Expression % greater than 50%, but less than 100%; C=Expression % less than 50%.

Structure (SMILES)	EC50 [1]	Surface expression % of H723R-hPDS relative to WT-hPDS (Glycosylated form pendrin) ([2]; 3 uM)	Surface expression % of H723R-hPDS relative to WT-hPDS (Glycosylated form pendrin) ([2]; 10 uM)
NC1=C(c2cncc(-c3ccc(O)c(O)c3)n2)C(=O)CN1c1ccccc1Cl [Compound 9]	< 5 µM	A (A=Expression % greater than 100%)	A (A=Expression % greater than 100%)
NC1=C(c2cncc(-c3ccc(O)c(O)c3)n2)C(=O)CN1CC1CCCC1 [Compound 18]	< 5 µM	A (A=Expression % greater than 100%)	A (A=Expression % greater than 100%)
COc1cc(-c2nccc(C3=C(N)N(CC4CCCC4)CC3=O)n2)ccc1O [Compound 105]	< 5 µM	A (A=Expression % greater than 100%)	A (A=Expression % greater than 100%)
